These results are taken from paper PMC8620685, “Effect of Selected Silyl Groups on the Anticancer Activity of 3,4-Dibromo-5-Hydroxy-Furan-2(5H)-One Derivatives” (Pharmaceuticals, 2021).

Where two headings read alike, the source gives them in different places.

For one data set, the system named is HCT 116 wt. Put plainly: MTT assay, HCT 116 wt. The data set is classed as cell-based, human. On the procedure: (§1) The in vitro antitumor activities of the MBA and its derivatives (Table 2) were assayed against a panel of human cancer cell lines (HCT116, HCT-116 ^−/−p53, HT-29, MCF-7, SJSA-1, U2OS, HepG2 and Hep3B) using the MTT assay. As a reference drug we used 5-fluorouracil (5-FU). […] On the basis of in vitro antiproliferative activities, compounds 3b and 3c were selected for further mechanistic studies in the HCT-116 cell line.
(§2) Human cells lines: colon cancer (HCT-116 wt, HT-29), non-small lung carcinoma (A549), and bronchial epithelial cells (BEAS-2B) were obtained from American Type Culture Collection (ATCC, Manassas, VA, USA). Isogenic cell line HCT 116 p53^−/− (deleted both p53 alleles) were a gift from Dr. Bert Vogelstein. Other cell lines, namely MCF-7, SJSA-1, U2OS, HepG2, and Hep3B were received from the collection stored at Centre of Biotechnology of Silesian University of Technology. All cells were grown in DMEM with a high glucose medium (Sigma-Aldrich, Taufkirchen, Germany) supplemented with 10% (v/v) inactivated fetal bovine serum (FBS) (EURx, Gdańsk, Poland) and 1% antibiotics (10,000 μg/mL of streptomycin and 10,000 units/ml of penicillin) (Sigma-Aldrich, Taufkirchen, Germany) at 37 °C in humidified 5% CO2. The maximum concentration of DMSO in the culture media was 0.4%.
(§3) 5 × 10^3 cells per well for the MCF-7 cell line and 2.5 × 10^3 cells per well for the other cell lines were seeded in 96-well plates to adhere for 24 h. Afterward, the cells were treated with tested compounds. After 72 hours of incubation, 50 μL 0.5 mg/ml solution of MTT (3-(4,5-dimethylthiazol-2-yl)-2,5-diphenyl-2H-tetrazolium bromide) were added to each well and the plates were incubated for 3 h at 37 °C. Next, the MTT solution was removed from the plates and formed formazan crystals were dissolved in 2-propanol (Avantor Performance Materials, Gliwice, Poland) containing 0.04 M hydrochloric acid (Avantor Performance Materials, Gliwice, Poland). The absorbance was measured at 570 nm wavelength using a multiwall plate reader (BioTek, Winooski, VT, USA). The experiment was performed at a minimum of 3 independent replicates. Cell viability was set as a percentage versus vehicle control. IC50 was defined as a concentration of a drug that decreased cell viability by 50% relative to the untreated control.

The test system of a further data set is HCT 116 p53−/−. Put plainly: MTT assay, HCT 116 p53−/−. The data set is classed as cell-based. The note with it: Homo sapiens, read-out: IC50 (cytotoxicity), HCT 116 p53−/−. As to the method: as §1, §2, §3
Another data set deals with HT-29. Put plainly: MTT assay, HT-29. The data set is classed as cell-based. The following applies: Homo sapiens, read-out: IC50 (cytotoxicity), HT-29. As to the method:
as §1, §2, §3

For the next data set, the system named is MCF-7. Put plainly: MTT assay, MCF-7. It is filed as cell-based, human. As to the method:
as §1, §2, §3

The test system of a further data set is U2OS. Put plainly: MTT assay, U2OS. It is filed as cell-based. The following applies: Homo sapiens, MTT, 72 h incubation, read-out: IC50 (cytotoxicity), U2OS. As to the method: as §1, §2, §3
Another data set relates to A549. Put plainly: MTT assay, NSCLC cell line A549. The data set is classed as cell-based, human. The note with it: for IC50: Homo sapiens, A549, MTT, 72 h incubation, read-out: IC50 (cytotoxicity), A549; for SI: selectivity, A549 versus BEAS-2B. As to the method:
(§4) One of the major drawbacks of currently used anticancer drugs is their low selectivity, which often leads to undesired side effects that may be harmful to patients. Overcoming this challenging task requires special attention at the pre-clinical development level. To check whether silyl group incorporation may affect the selectivity of compounds towards cancer cells, MBA and all its new silyl derivatives were tested for their efficacy on noncancerous BEAS-2B and cancerous A549 cells line. […] In contrast, compounds 3a and 3d were more cytotoxic to A549 cells with SI values 6.05 and 1.72, respectively. Strikingly, those two compounds have similar cLogP values 3.08 and 3.22, respectively.
as §2, §3

Data set [1] in a line: MTT assay, normal bronchial epithelium cell line BEAS-2B. It is filed as cell-based. The following applies: human, BEAS-2B cells (noncancerous bronchial epithelial cells); MTT, 72 h incubation; noncancerous cells; read-out: IC50 (cytotoxicity), BEAS-2B. As to the method:
as §4, §2, §3

The next data set concerns SJSA-1. Put plainly: MTT assay, SJSA-1. It is filed as cell-based. The following applies: Homo sapiens, SJSA-1; MTT, 72 h incubation; read-out: IC50 (cytotoxicity), SJSA-1. On the procedure: as §1, §2, §3
For a further data set, the system named is HepG2. Put plainly: MTT assay, HepG2. The data set is classed as cell-based. The note with it: Homo sapiens, HepG2; MTT, 72 h incubation; read-out: IC50 (cytotoxicity), HepG2. As to the method: as §1, §2
as §3, with “The experiment was performed at a minimum of 3 independent replicates. Cell viability was set as a percentage versus vehicle control. IC50 was defined as a concentration of a drug that decreased cell viability by 50% relative to the untreated control.” left out

The next data set relates to Hep3B. Put plainly: MTT assay, Hep3B. The data set is classed as cell-based. The note with it: Homo sapiens, MTT, 72 h incubation, read-out: IC50 (cytotoxicity), Hep3B. As to the method:
as §1, §2, §3

The subject of a further data set is HCT-116 cells. Put plainly: Annexin V-FITC/PI apoptosis assay. The data set is classed as cell-based, human. The following applies: HCT-116, statement in discussion. On the procedure: To verify this thesis, we utilized annexin-V/PI double staining of cells, which were subsequently subjected to flow cytometric analysis.
The HCT 116 cells were seeded in 6-well plate (Nunc, ThermoFisher, Waltham, MA, USA) at a density of 5 × 10^4 cells/well and allowed to attach. After 24 h the medium was replaced with tested compounds. The cells were then incubated for 24 h at 37 °C. Next, both floating and adherent cells were harvested and centrifuged at 600× g. The cells were washed with PBS (phosphate buffered saline) (Sigma-Aldrich, Taufkirchen, Germany) and we followed instructions from the manufacturer of the Annexin V-FITC Apoptosis Detection Kit (Biotool, Jupiter, FL, USA). Fluorescence was measured using a Becton Dickinson FACS Aria III sorter (BD Company, San Diego, CA, USA). Experiments were repeated at least twice. Data were analyzed using FCE Express 7 Software (DeNovo Software, Pasadena, CA, USA).

Setting [2] is: Homo sapiens, HCT-116, 72 h, read-out: IC50 (cytotoxicity), HCT 116 wt, MTT, 72 h incubation.
The mark [3] stands for this setting: Homo sapiens, MCF7, 72 h, read-out: IC50 (cytotoxicity), MCF-7, MTT, 72 h incubation.

In the case of `O=c1[nH]cc(F)c(=O)[nH]1` [5FU, 5-fluorouracil, reference compound], the IC50 is 6.3 ± 1 µM in the data set with HCT 116 wt (Homo sapiens, HCT-116, 72 h, MTT, 72 h incubation, read-out: IC50 (cytotoxicity), HCT 116 wt); 13.4 ± 1.5 µM in the data set with HCT 116 p53−/− (HCT-116, MTT, 72 h incubation); 32.8 ± 4.7 µM with HT-29 (HT-29, MTT, 72 h incubation); 29.7 ± 1.4 µM in the data set on MCF-7 (Homo sapiens, MCF7, 72 h, MTT, 72 h incubation, read-out: IC50 (cytotoxicity), MCF-7); 89.8 ± 2.1 µM in the data set on U2OS.

As to `CC[Si](CC)(CC)OC1OC(=O)C(Br)=C1Br` (stereo not drawn) [Compound 3d, 3,4-Dibromo-5-(trietylsilyloxy)-furan-2(5H)-one], the IC50 in the data set on HCT 116 wt (setting [2]) turned out to be 1.6 ± 0.4 µM; in the data set on HCT 116 p53−/− (HCT-116, 72 h), 4.4 ± 0.4 µM; with MCF-7 (setting [3]), 89 µM; in the data set with MCF-7 (human, 72 h), 89.2 ± 6 µM; in the data set with A549, 4.7 ± 0.1 µM. In the data set with A549, this compound gave an SI of 1.72. The IC50 at 72 h in data set [1] came to 8.1 ± 1.2 µM.

As for `CC(C)(C)[Si](C)(C)OC1OC(=O)C(Br)=C1Br` (stereo not drawn) [Compound 3a, 3,4-Dibromo-5-(tert-butyldimethylsilyloxy)-furan-2(5H)-one], the IC50 with HCT 116 wt (setting [2]) was 1.4 µM; in the data set on HCT 116 wt (human, 72 h), 1.3 ± 0.12 µM; in the data set with HCT 116 p53−/− (HCT-116, 72 h) it was 21.4 ± 3.4 µM; in the data set on HT-29 (HT-29, 72 h), 88.7 ± 8.2 µM; in the data set on MCF-7 (setting [3]), 186 ± 14.2 µM; with SJSA-1 it was 196 ± 5.4 µM. For the same compound, the figures for the IC50 in the data set on HepG2, in the data set on Hep3B and with A549 were 135 ± 6 µM, 135 ± 6.1 µM and 23.4 ± 6.6 µM, respectively. In addition, the SI with A549 came out at 6.05. Also, the IC50 at 72 h in data set [1] came out at 142 ± 23.1 µM. The “induction of apoptosis / cell death in HCT-116” value in the data set with HCT-116 cells is “failed to induce apoptosis”.
